Values joined by “and” are separate entries in the source; they are usually repeats but may differ in a detail not shown here. Identical values can stand only once. Like-named read-outs stand apart in the source and are kept apart here. One block for each molecule: values may come before it.
How the values were obtained:
[1] = at clinically relevant doses; cited from earlier work
[2] = Toxicity in patients (CTCAE version 4.0, patient diaries) per study phase; format: in vivo, human
Excerpt: Toxicity was described as the incidence of toxicity per phase. This was corrected for baseline toxicity and was only taken into account in case of an increase in CTCAE grade per PK sampling day.

[3] = clinical; conditions: human, plasma, oral
Experimental: Patients were admitted to the hospital on days 1 and 15 of the study for pharmacokinetic blood sampling. […] Blood samples were processed into plasma within 30 min, by vortex mixing and centrifugation for 10 min at 2500× g at 4 °C. Plasma concentrations were determined using a validated liquid chromatography tandem mass spectrometry (LC-MS/MS) method [18], at both the laboratory of Translational Pharmacology in the Erasmus MC, Rotterdam, and the laboratory of Pharmaceutics and Pharmaceutical Chemistry, Ohio State University, OH.
The point estimates and CIs were transformed back to the original scale in order to give the point estimates for the ratio of the geometric means and the CIs. Tmax was analyzed by means of the Wilcoxon signed rank test and described with medians and interquartile ranges. Toxicity was described as the incidence of toxicity per phase. This was corrected for baseline toxicity and was only taken into account in case of an increase in CTCAE grade per PK sampling day.

[4] = Sorafenib concentration in 3-mm skin biopsies of patients (LC-MS/MS); format: in vivo, human
Experimental: A 3-mm skin biopsy was obtained at days 1 and 15 of the study during PK sampling days for pharmacokinetic analysis. Skin biopsies were taken from either the forearm or the shoulder region, but always from the same region at the same timepoint in an individual patient during the two consecutive PK sampling days. If patients had HFSR lesions at the hand at the first PK day, an additional skin biopsy was performed from the thenar eminence region of the hand for pathologic analysis on days 1 and 15. The biopsies were graded according to the scoring for interface dermatitis as used for graft-versus-host disease by an experienced pathologist (J.D.).

[5] = parameters: method as in PMID 29065985; conditions: cited from earlier work
[6] = plasma, relative difference of geometric means
[7] = plasma, sorafenib monotherapy (day 1)

SMILES: CCCN(CCC)S(=O)(=O)c1ccc(C(=O)O)cc1 [Probenecid, probenecid]
plasma concentrations achieved [1]: higher than 200 µM | occurrence of HFSR, rash, anorexia, and fatigue ([2]; during probenecid administration (concomitant with sorafenib)): 65%

Cmax [3]: 3340 ng/mL | Tmax [3]: 2.2 h | AUC(0-t) ([3]; 500 mg): 24500 ng·h/mL | Kp at 15 study day ([4]; human, skin and plasma, oral): 0.00147 | RD sorafenib monotherapy vs. sorafenib + probenecid (90% CI), sorafenib concentration in keratinocytes ([4]; skin biopsy): −28.1% (−46.3% to −3.7%) | decrease of sorafenib concentration in skin in the presence of probenecid ([4]; vs sorafenib alone, decrease): 28.1% | difference in sorafenib plasma AUC between patients with or without liver cirrhosis (90% CI: −32.9% to 30.7%, P = 0.73): −6.3% | difference in sorafenib plasma Ctrough between patients with or without liver cirrhosis (90% CI: −46.8% to 61.3%, P = 0.81): −7.4% | AUC(0-t) (human, plasma, oral): 33500 ng·h/mL | Cmax (human, plasma, oral, Cmax (CV%) geomean, plasma, sorafenib monotherapy (day 1)): 4460 ng/mL | Tmax (human, plasma, oral, Tmax (IQR) median, plasma, sorafenib monotherapy (day 1)): 3.7 h | RD sorafenib monotherapy vs. sorafenib + probenecid (90% CI), Cmax [6]: −25.1% (−44.3% to −19.7%) | RD sorafenib monotherapy vs. sorafenib + probenecid (90% CI), Ctrough [6]: −26.0% (−43.4% to −3.4%) | Ctrough (CV%) geomean [7]: 2125.5 (60) μg/mL | decrease of geometric mean plasma AUC0–12 h with concomitant probenecid (vs sorafenib alone, decrease): 27% and 26.8% | decrease of plasma Cmax with concomitant probenecid (vs sorafenib alone, decrease): 25.1% | decrease of plasma Ctrough with concomitant probenecid (vs sorafenib alone, decrease): 26.0%
SMILES: CNC(=O)c1cc(Oc2ccc(NC(=O)Nc3ccc(Cl)c(C(F)(F)F)c3)cc2)ccn1 [Sorafenib, sorafenib]
Anorexia, Grade 1–2, patients ([2]; N = 16 per phase): 4 | Constipation, Grade 1–2, patients ([2]; N = 16 per phase): 2 | Diarrhea, Grade 1–2, patients ([2]; N = 16 per phase): 1 | Fatigue, Grade 1–2, patients ([2]; N = 16 per phase): 2 | Fever, Grade 1–2, patients ([2]; N = 16 per phase): 1 | HFSR, Grade 1–2, patients ([2]; N = 16 per phase): 3 | Nausea, Grade 1–2, patients ([2]; N = 16 per phase): 1 | Oral mucositis, Grade 1–2, patients ([2]; N = 16 per phase): 1 | Pain, Grade 1–2, patients ([2]; N = 16 per phase): 1 | Pain, Grade 3, patients ([2]; N = 16 per phase): 1 | Rash, Grade 1–2, patients ([2]; N = 16 per phase): 1 | Vomiting, Grade 1–2, patients ([2]; N = 16 per phase): 0 | Serious adverse events (SAE) ([2]; N = 16 per phase, assumed not related to study drugs): 1 | occurrence of HFSR, rash, anorexia, and fatigue ([2]; during sorafenib monotherapy): 43% | patients in whom HFSR occurred ([2]; whole study): 10 of 16 patients | clinical incidence of HFSR ≥ grade 3 [5]: 20%

RD sorafenib monotherapy vs. sorafenib + probenecid (90% CI), AUC0–12 h [6]: −36.3% (−52.8% to −14.1%) | RD sorafenib monotherapy vs. sorafenib + probenecid (90% CI), Cmax [6]: −39.2% (−54.6% to −18.7%) | RD sorafenib monotherapy vs. sorafenib + probenecid (90% CI), Ctrough [6]: −35.2% (−59.7% to 4.3%) | Cmax (CV%) geomean [7]: 467.3 (77) μg/mL | Ctrough (CV%) geomean [7]: 271.1 (282) μg/mL | decrease of geometric mean plasma AUC0–12 h with concomitant probenecid (vs sorafenib alone, decrease): 36.3% | decrease of plasma Cmax with concomitant probenecid (vs sorafenib alone, decrease): 39.2%
SMILES: CNC(=O)c1cc(Oc2ccc(NC(=O)Nc3ccc(Cl)c(C(F)(F)F)c3)cc2)cc[n+]1[O-] [Sorafenib-N-oxide, sorafenib-N-oxide]

— publication PMC7559746 (Pharmaceutics, 2020)
